According to patent US6358491B1, “Somatostatin analogs” (Berlex Laboratories, Inc., priority 1999, dated 2002):
Read-outs that look alike come from different tables or passages of the source. *1 amine or outer side, *2 acyl side, *3 side chain or, on linkers, in order; H or OH if unused. Where a SMILES comes first, the peptide text is derived from it. Bridges are numbered along the chain shown (N, C = ends). Roman numbers before positions name the chains, in order. [ ]: non-standard residue; d: D form. ξ: configuration not given here. Phe(4-NH2) = Nc1ccc(C[C@H](N)C(=O)O)cc1; NMehCys = CN[C@@H](CCS)C(=O)O; Thr(3ξ) = CC(O)[C@H](N)C(=O)O; Dap = NC[C@H](N)C(=O)O; X1 = O=C(C[*:1])[*:2]

Assays:
[1] = test system: SSTRs, AR42J cell membranes; test: [125I]SST-14 binding to AR42J cell membranes (SSTR affinity); set-up: species or system rat; conditions: inhibition of [125I]SST-14 binding; two-site fit; read-out: IC50 Values for AR42J Cell Membranes (first value)
Protocol: (§1) [^125I-Tyr^11] somatostatin-14 ([^125I]SST-14) was obtained from Amersham. Unlabeled somatostatin-14 was purchased either from BACHEM (Torrance, Calif.) or from Sigma Chemical Co. (St. Louis, Mo.). Protease inhibitors, leupeptin, aprotinin, bacitracin, and benzamidine and other reagents were obtained from Sigma. Protease inhibitors were prepared in dimethylsulfoxide (DMSO) at a concentration 500×higher than the final assay concentration. The prepared protease solution was stored at −20° C. and diluted with the buffer solution before use.
Membrane preparations used in these studies were prepared from two commercially available tumor cell lines, the human small cell lung cancer cell line, NCI-H69, and the rat pancreatic tumor cell line, AR42J, obtained from American Type Culture Collection (ATCC) (Manassas, Va.). […]
Cultured cells were first detached from plates with phosphate-buffered saline, pH 7.4, containing 2 mM EDTA, and centrifuged at 1,500×g for 10 min. […] Membrane protein concentration was determined spectroscopically using the bicinchonic acid (BCA) protein assay kit (Pierce Chemical Inc. (Rockford, Ill.).
All [^125I]SST-14 binding assays were performed in 0.5 mL binding buffer containing 50 mM HEPES, pH 7.5, 10 mM MgCl2, 0.25% BSA (w/v) containing protease inhibitors (same as above) and incubated at 37° C. for 45 minutes. […] The percent inhibition (% Inh) by peptide was expressed as […]

[2] = Biodistribution of 99mTc-labeled compounds in nude mice with AR42J tumor xenografts; type: in vivo; conditions: nude, mouse, iv, total radioactivity, 99mTc-labeled compound, 90 minutes post-injection; for tissue uptake dose at 1.5 h: i.v.
Protocol: (§2) Rat pancreatic AR42J cells (ATCC, Rockville, Md., USA) were grown in Modified Ham's F12K medium (Cat. No. N-3520, Sigma, St. Louis, Mo., USA) containing 20% fetal bovine serum (FCS) (Cat. No. 1224, Lot No. 9702058, Sigma, St. Louis, Mo., USA) under sterile conditions in 95% humidity and 5% CO2. At a density of approximately 10×10^6 cells per T150 flask, the cells were harvested with trypsin and collected by centrifugation at 2400 rpm (800×g) for 15 minutes in a benchtop centrifuge (IEC Centra-8 tabletop centrifuge, International Equipment Company, Needham, Mass., USA). The cells were resuspended in medium containing 20% FCS for implantation.
(§3) Six female nude mice (CrlLNU/NU-nuBR, 6-8 weeks old) were injected subcutaneously into the right flank with tumor cells (2×10^7/100 μL) in 20% matrigel (Collaborative Biomedical Products, Chicago, Ill., USA). Fourteen days after inoculation tumors were visible in all animals. Three weeks after inoculation, tumors were aseptically dissected, minced and implanted into 60 nude mice using a trochar. The tumor xenografts from the second passage were used for biodistribution studies.
(§4) A dose of approximately 50-100 μCi ^99mTc-labeled compound/mouse was injected intravenously in a total volume of 100 μL. Mice were sacrificed 90 minutes post-injection by decapitation and the trunk blood was collected. Tumors (1 to 3 per mouse), liver, gastrointestinal tract, kidneys, and samples of muscle from both legs (quadriceps femoralis) were collected, weighed, and counted for radioactivity.

AR42J tumor xenografts = test: as above; type: in vivo; conditions: 99mTc-labeled compound, 90 minutes post-injection; for TUMOR: i.v.; for T:B: tumor to blood ratio; for T:M: tumor to muscle ratio
Protocol: as §2, §3, §4

SSTRs, NCI-H69 membranes = test: [125I]SST-14 binding to NCI-H69 cell membranes (SSTR affinity); set-up: species or system human; conditions: inhibition of [125I]SST-14 binding, two-site fit
Protocol: as §1
Membrane preparations used in these studies were prepared from two commercially available tumor cell lines, the human small cell lung cancer cell line, NCI-H69, and the rat pancreatic tumor cell line, AR42J, obtained from American Type Culture Collection (ATCC) (Manassas, Va.). NCI-H69 cells were maintained by serial passage in RPMI 1640 with 10% fetal calf serum. AR42J cells were maintained in F-12K medium containing 20% fetal calf serum. Cells in culture flasks were incubated at 37° C. with 5% CO2 in air atmosphere following the recommendations of the “Product Sheet” from ATCC.
Cultured cells were first detached from plates with phosphate-buffered saline, pH 7.4, containing 2 mM EDTA, and centrifuged at 1,500×g for 10 min. Cells were then resuspended in 5-10 mL of the homogenization buffer (1 mM sodium bicarbonate, pH 7.4, 1 mM EDTA, 1 mM EGTA, 2.5 mM DTT, 5 μg/mL leupeptin, 5 μg/mL aprotinin, 100 μg/mL bacitracin, 100 μg/mL benzamidine) for 10 min on ice. The cells were lysed for 30 sec twice in a polytron with a setting at 5. The lysate was centrifuged at 1,000×g for 10 min at 4° C. The supernatant was centrifuged at 40,000×g for 20 min at 4° C. This step was repeated twice with the homogenization buffer in the absence of protease inhibitors. The pellet was then resuspended at 1-5 mg membrane protein/mL in 25 mM Tris, pH 7.4 without the addition of protease inhibitors and the membranes were stored at −80° C. before use. Membrane protein concentration was determined spectroscopically using the bicinchonic acid (BCA) protein assay kit (Pierce Chemical Inc. (Rockford, Ill.).
All [^125I]SST-14 binding assays were performed in 0.5 mL binding buffer containing 50 mM HEPES, pH 7.5, 10 mM MgCl2, 0.25% BSA (w/v) containing protease inhibitors (same as above) and incubated at 37° C. for 45 minutes. After incubation, samples were kept at 4° C. and rapidly filtered under vacuum through a Whatman GF/B glass fiber filter with a 12-well harvester (Skatron Instruments Inc., Sterling, Va.). The filter was washed for 9 seconds with cold 50 mM HEPES, pH 7.5, 10 mM MgCl2, 0.25% BSA (w/v). Thirty-five […] of [^125I]SST-14 from Amersham was used in each tube. Peptides were solubilized in DMSO and serially diluted with DMSO. Five μL of peptide in DMSO was used to obtain the final concentration. DMSO (5 μL) was added to the tube without the addition of any peptide or unlabeled SST-14, so that each tube contained 1% DMSO. Non-specific binding was defined as the binding of [^125I]SST-14 which was not displaceable with an excess of unlabeled SST-14 at a concentration of 1×10^−6 M. The bound [^125I]SST-14 without or with excess unlabeled SST-14 (1×10^−6 M) was defined as total binding and nonspecific binding, respectively. The difference between total and nonspecific binding was defined as specific binding. The percent inhibition (% Inh) by peptide was expressed as
% Inh=(total binding−total binding in the presence of peptide)/specific binding×100%
Inclusion of protease inhibitors in homogenizing medium as well as assay buffer is essential to maintain the integrity of both [^125I]SST-14 and somatostatin analogs for the receptor binding assay and to obtain optimal specific binding. The highest specific binding was observed when MgCl2 (10 mM) was included. Membranes were finally resuspended in a sodium-free medium and receptor binding assays were performed in the absence of sodium ions. […]

[3] = patient, four cycles of treatment; cited from earlier work
[4] = 24 hours post-injection, cited from earlier work
[5] = read-out: IC50 Values for Uncomplexed Compounds, NCI-H69 (first value)
[6] = read-out: IC50 Values for Uncomplexed Compounds, NCI-H69 (second value)

Row | Compound | TUMOR (AR42J tumor xenografts) | T:B (AR42J tumor xenografts) | T:M (AR42J tumor xenografts) | IC50 (SSTRs, NCI-H69 membranes; [5]) | IC50 (SSTRs, NCI-H69 membranes; [6]) | other results
1 | C[C@@H](O)[C@@H]1NC(=O)[C@H](CCCCN)NC(=O)[C@@H](Cc2c[nH]c3ccccc23)NC(=O)[C@H](Cc2ccc(O)cc2)NC(=O)[C@H](CCSCC(=O)NC[C@H](N)C(=O)N[C@@H](CCN)C(=O)N[C@@H](CS)C(=O)NC(CO)CO)N(C)C(=O)[C@H](Cc2ccccc2)NC1=O [cyclo-Tyr-D-Try-Lys-Thr-Phe-(N—CH3)Hcy(CH2 CO-β-Dap-Dab-Cys-Ser(ol))] | 10.8 %ID/g | 30 | 89 | 1.08 nM |  | 
2 | C[C@@H](O)[C@H](NC(=O)CSCC[C@H]1C(=O)N[C@@H](Cc2ccc(O)cc2)C(=O)N[C@H](Cc2c[nH]c3ccccc23)C(=O)N[C@@H](CCCCN)C(=O)N[C@@H]([C@@H](C)O)C(=O)N[C@@H](Cc2ccccc2)C(=O)N1C)C(=O)NCC(=O)NCC(=O)N[C@@H](CS)C(N)=O [cyclo-Tyr-D-Trp-Lys-Thr-Phe-(N—CH3)Hcy(CH2 CO-Thr-Gly-Gly-Cys-NH2)] | 3.81 %ID/g | 30 | 95 | 1.63 nM | 24300 nM | 
3 | ^90Y-DOTA-lanreotide |  |  |  |  |  | 90Y kidney doses [3]: 1.98-2.43 mGy/MBq; spleen doses [3]: 1.68-3.35 mGy/MBq
4 | ^111In-DOTA-lanreotide |  |  |  |  |  | retention in human liver [4]: about 3.2 % injected dose; retention in kidney ([4]; human): about 2.5 % injected dose; retention in spleen ([4]; human): about 1.2 % injected dose
5 | C[C@@H](O)[C@@H]1NC(=O)[C@H](CCCCN)NC(=O)[C@@H](Cc2c[nH]c3ccccc23)NC(=O)[C@H](Cc2ccc(O)cc2)NC(=O)[C@H](CCSCC(=O)NC[C@H](N)C(=O)N[C@@H](CO)C(=O)N[C@@H](CS)C(=O)N[C@H](CO)[C@@H](C)O)N(C)C(=O)[C@H](Cc2ccccc2)NC1=O [cyclo-Tyr-D-Trp-Lys-Thr-Phe-(N—CH3)Hcy(CH2 CO-β-Dap-Ser-Cys-Thr(ol))] | 12.6 %ID/g | 31 | 144 | 1.57 nM | < 0.001 nM | 

More lines, in order of falling IC50 (SSTRs, NCI-H69 membranes; [5]), values ahead:

Row | TUMOR (AR42J tumor xenografts) | T:B (AR42J tumor xenografts) | T:M (AR42J tumor xenografts) | IC50 (SSTRs, NCI-H69 membranes; [5]) | IC50 (SSTRs, NCI-H69 membranes; [6]) | Compound | other results
6 | 15.5 %ID/g | 29 | 96 | 0.861 nM |  | C[C@@H](O)[C@@H]1NC(=O)[C@H](CCCCN)NC(=O)[C@@H](Cc2c[nH]c3ccccc23)NC(=O)[C@H](Cc2ccc(O)cc2)NC(=O)[C@H](CCSCC(=O)NC[C@H](N)C(=O)N[C@@H](Cc2c[nH]cn2)C(=O)N[C@@H](CS)C(=O)N[C@H](CO)[C@@H](C)O)N(C)C(=O)[C@H](Cc2ccccc2)NC1=O [cyclo-Tyr-D-Trp-Lys-Thr-Phe-(N—CH3)Hcy(CH2 CO-β-Dap-His-Cys-Thr(ol))] | 
7 | 31.8 %ID/g | 81 | 188 | 0.501 nM | < 0.001 nM | C[C@@H](O)[C@@H]1NC(=O)[C@H](CCCCN)NC(=O)[C@@H](Cc2c[nH]c3ccccc23)NC(=O)[C@H](Cc2ccc(O)cc2)NC(=O)[C@H](CCSCC(=O)NC[C@H](N)C(=O)N[C@@H](Cc2ccc(N)cc2)C(=O)N[C@@H](CS)C(=O)N[C@H](CO)[C@@H](C)O)N(C)C(=O)[C@H](Cc2ccccc2)NC1=O [cyclo-Tyr-D-Trp-Lys-Thr-Phe-(N—CH3)Hcy(CH2 CO-β-Dap-Phe(4-NH2)-Cys-Thr(ol))] | 
8 | 24.7 %ID/g | 29 | 127 | 0.201 nM | 8.91 nM | CC(O)[C@H](NC(=O)[C@H](CS)NC(=O)[C@H](Cc1ccc(N)cc1)NC(=O)[C@@H](N)CNC(=O)CSCC[C@H]1C(=O)N[C@@H](Cc2ccc(O)cc2)C(=O)N[C@H](Cc2c[nH]c3ccccc23)C(=O)N[C@@H](CCCCN)C(=O)N[C@@H](C(C)O)C(=O)N[C@@H](Cc2ccccc2)C(=O)N1C)C(=O)N[C@@H](CO)C(=O)O (stereo partly drawn) [cyclo-Tyr-D-Trp-Lys-Thr-Phe-(N—CH3)Hcy(CH2CO-β-Dap-Phe(4—NH2)-Cys-Thr-Ser)] (I: cyclo(F[NMehCys]Y[dW]K[Thr(3ξ)]) / II: H-[Dap][Phe(4-NH2)]C[Thr(3ξ)]S-OH; linker I:2-II:1 via X1) | IC50 [1]: 0.433 nM; tissue uptake dose at 1.5 h ([2]; gastrointestinal tract, read-out: GI): 8 %ID; tissue uptake at 1.5 h ([2]; kidneys): 4.8 %ID/g; tissue uptake dose at 1.5 h ([2]; spleen, read-out: Spleen): 0.21 %ID; dose excreted at 1.5 h ([2]; urine): 59%
